We go through 42 compounds from patent US10246439B2, “Apoptosis signal-regulating kinase 1 inhibitors and methods of use thereof” (ENANTA PHARMACEUTICALS, INC., priority 2017, dated 2019).

For the assay, the target named is T1, ASK1 (Homo sapiens, UniProt Q99683).
T1 construct: purchased Thermofisher PV4011
T1 sequence (Q99683 1-1374): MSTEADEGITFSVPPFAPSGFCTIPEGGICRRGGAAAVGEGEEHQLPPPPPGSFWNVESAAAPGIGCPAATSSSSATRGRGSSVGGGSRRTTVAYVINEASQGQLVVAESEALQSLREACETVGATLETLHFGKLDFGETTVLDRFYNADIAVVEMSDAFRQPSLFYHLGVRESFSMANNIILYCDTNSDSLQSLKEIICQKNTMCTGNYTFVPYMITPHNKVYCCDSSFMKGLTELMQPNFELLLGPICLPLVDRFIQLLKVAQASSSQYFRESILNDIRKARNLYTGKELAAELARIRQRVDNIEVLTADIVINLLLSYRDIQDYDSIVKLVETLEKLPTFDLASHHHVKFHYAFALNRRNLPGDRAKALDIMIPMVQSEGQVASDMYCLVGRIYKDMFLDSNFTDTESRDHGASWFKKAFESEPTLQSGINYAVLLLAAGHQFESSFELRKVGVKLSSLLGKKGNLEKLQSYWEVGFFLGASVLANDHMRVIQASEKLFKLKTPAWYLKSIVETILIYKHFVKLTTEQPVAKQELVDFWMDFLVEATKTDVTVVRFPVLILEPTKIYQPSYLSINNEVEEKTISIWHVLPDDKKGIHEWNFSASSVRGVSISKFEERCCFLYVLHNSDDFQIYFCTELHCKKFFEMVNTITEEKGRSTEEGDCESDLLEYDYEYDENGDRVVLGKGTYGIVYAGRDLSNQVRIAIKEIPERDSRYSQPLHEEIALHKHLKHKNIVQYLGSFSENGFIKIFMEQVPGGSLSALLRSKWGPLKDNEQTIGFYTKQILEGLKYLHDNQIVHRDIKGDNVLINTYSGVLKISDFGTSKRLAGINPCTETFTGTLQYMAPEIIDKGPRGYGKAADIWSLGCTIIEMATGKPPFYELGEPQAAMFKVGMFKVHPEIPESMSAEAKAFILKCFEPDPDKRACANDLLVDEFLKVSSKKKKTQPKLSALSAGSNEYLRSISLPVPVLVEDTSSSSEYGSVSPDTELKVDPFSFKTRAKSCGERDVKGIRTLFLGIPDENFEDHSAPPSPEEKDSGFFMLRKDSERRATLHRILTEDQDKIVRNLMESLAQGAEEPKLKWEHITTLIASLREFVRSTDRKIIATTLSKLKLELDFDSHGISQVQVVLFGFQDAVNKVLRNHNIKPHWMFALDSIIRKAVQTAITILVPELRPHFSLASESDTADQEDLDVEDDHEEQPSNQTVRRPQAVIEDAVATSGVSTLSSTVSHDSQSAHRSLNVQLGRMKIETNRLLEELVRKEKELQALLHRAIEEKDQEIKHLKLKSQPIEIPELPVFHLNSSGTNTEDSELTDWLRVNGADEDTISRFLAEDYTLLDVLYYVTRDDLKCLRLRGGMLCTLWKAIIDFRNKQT
Briefly: HTRF KinEASE-STK TR-FRET kinase assay, inhibition of ASK1. The conditions noted are these: 5 nM ASK1, 1 uM STK3 peptide substrate, 100 uM ATP. It counts as biochemical. The procedure: ASK1 was purchased from Thermofisher (Catalogue # PV4011), ATP was purchased from Sigma (Catalogue # A7699), HTRF® KinEASE™ Assay System was obtained from Cisbio (Bedford, Mass.). ½ Area plate was purchased from Perkin Elmer (Catalogue # #6005560). HTRF® KinEASE™-STK is a generic method for measuring serine/threonine kinase activities using a time-resolved fluorescence resonance energy transfer (TR-FRET) immunoassay. The IC50 value for each compound was determined in the presence of compound (various concentration from 0 to 10 μM) and a fixed amount of ATP and peptide substrates. The test compound, 1 uM STK3 peptide substrate, and 5 nM of ASK1 kinase are incubated with kinase reaction buffer containing 50 mM HEPES pH 7.5, 0.01% BRIJ-35, 10 mM MgCl2, and 1 mM EGTA for 30 minutes. 100 uM ATP is added to start kinase reaction and incubated for 3 hours. The STK3-antibody labeled with Eu^3+-Cryptate and 125 nM streptavidin-XL665 are mixed in a single addition with stop reagents provided by the Cisbio kit used to stop the kinase reaction. Fluorescence is detected using an Envision Multilabeled 2014 reader from PerkinElmer. The Fluorescence is measured at 615 nm (Cryptate) and 665 nm (XL665) and a ratio of 665 nm/615 nm is calculated for each well. The resulting TR-FRET is proportional to the phosphorylation level. Staurosporine was used as the positive control. IC50 was determined by XLfit 5.3.

In the case of `CC(C)n1cnnc1-c1cccc(NC(=O)c2ccc3nc(N4CC5CC5C4)sc3c2)n1` (stereo not drawn) [Example 52], the IC50 is 10 to 100 nM. `CC(C)n1nnnc1-c1cccc(NC(=O)c2cc3sc(N4CCCC4)nc3cc2F)n1` [Example 47] displayed an IC50 above 1000 nM. The figure for `CC(C)n1nnnc1-c1cccc(NC(=O)c2cc3sc(N(C)C4CC4)nc3cc2F)n1` [Example 32] is above 1000 nM. For `CC(C)n1cnnc1-c1cccc(NC(=O)c2cc3sc(C4CCC4)nc3cn2)n1` [Example 67] the value was 10 to 100 nM. The figure for `CCCCN(C)c1nc2cc(F)c(C(=O)Nc3cccc(-c4nncn4C(C)C)n3)cc2s1` [Example 9] is 1 to 10 nM.

Turning to `CC(C)n1nnnc1-c1cccc(NC(=O)c2cc3sc(N4CCCCC4)nc3cn2)n1` [Example 62], the IC50 was above 1000 nM. The figure for `CC(C)n1nnnc1-c1cccc(NC(=O)c2cc3sc(N(C)C)nc3cc2F)n1` [Example 5] is 10 to 100 nM; for `CC(C)n1nnnc1-c1cccc(NC(=O)c2cc3sc(NC4CC4)nc3cc2F)n1` [Example 38] it is above 1000 nM.

As for `CC(C)n1cnnc1-c1cccc(NC(=O)c2ccc3nc(N4CCCCC4)sc3c2)n1` [Example 60, N-(6-(4-isopropyl-4H-1,2,4-triazol-3-yl)pyridin-2-yl)-2-(piperidin-1-yl)benzo[d]thiazole-6-carboxamide], the concentration for half-maximal inhibition (IC50) fell in the range of 10 to 100 nM. The figure for `CC(C)n1cnnc1-c1cccc(NC(=O)c2cc3sc(N4CCOCC4)nc3cn2)n1` [Example 65] is 1 to 10 nM.

Consider `CC(C)n1cnnc1-c1cccc(NC(=O)c2cc3sc(NC4CC4)nc3cc2F)n1` [Example 6, 2-(cyclopropylamino)-5-fluoro-N-(6-(4-isopropyl-4H-1,2,4-triazol-3-yl)pyridin-2-yl)benzo[d]thiazole-6-carboxamide], for which the IC50 lay within 1 to 10 nM. The figure for `CC(C)n1cnnc1-c1cccc(NC(=O)c2ccc3nc(N4CC5(COC5)C4)sc3c2)n1` [Example 18] is 10 to 100 nM; for `CC(C)n1nnnc1-c1cccc(NC(=O)c2cc3sc(N4CCCCC4)nc3cc2F)n1` [Example 4] it is above 1000 nM; for `CC(C)n1cnnc1-c1cccc(NC(=O)c2ccc3nc(N4CC5CCC(C4)O5)sc3c2)n1` [Example 17] it is 10 to 100 nM. The figure for `CC(C)n1nnnc1-c1cccc(NC(=O)c2cc3sc(N4CCOCC4)nc3cn2)n1` [Example 72] is above 1000 nM; for `CC(C)n1cnnc1-c1cccc(NC(=O)c2cc3sc(N4CCC(C(C)(C)C)CC4)nc3cn2)n1` [Example 73] it is above 1000 nM; for `CC(C)n1cnnc1-c1cccc(NC(=O)c2cc3sc(N4CCCC4)nc3cc2F)n1` [Example 50] it is 1 to 10 nM.

The compound `CC(C)n1cnnc1-c1cccc(NC(=O)c2ccc3nc(NC4CCCCC4)sc3c2)n1` [Example 24] yielded an IC50 of 10 to 100 nM.

On to `CC(C)n1cnnc1-c1cccc(NC(=O)c2ccc3nc(-c4ccccc4)sc3c2)n1` [Example 22], for which the IC50 was 100 to 1000 nM.

`CC(C)n1cnnc1-c1cccc(NC(=O)c2ccc3nc(N4CCCC4)sc3c2)n1` [Example 20]: the IC50 was 100 to 1000 nM. Consider `CC(C)n1nnnc1-c1cccc(NC(=O)c2cc3sc(N4CCN(C5CC5)CC4)nc3cc2F)n1` [Example 42], for which the IC50 is above 1000 nM. For `CCCCNc1nc2cc(F)c(C(=O)Nc3cccc(-c4nncn4C(C)C)n3)cc2s1` [Example 27] the value was 1 to 10 nM; for `CC(C)n1cnnc1-c1cccc(NC(=O)c2cc3sc(C4CC4)nc3cn2)n1` [Example 63, 2-cyclopropyl-N-(6-(4-isopropyl-4H-1,2,4-triazol-3-yl)pyridin-2-yl)thiazolo[4,5-c]pyridine-6-carboxamide], 10 to 100 nM; for `CCN(CC)c1nc2cc(F)c(C(=O)Nc3cccc(-c4nncn4C(C)C)n3)cc2s1` [Example 13], 1 to 10 nM. The figure for `CC(C)n1cnnc1-c1cccc(NC(=O)c2ccc3nc(N(C)C)sc3c2)n1` [Example 23] is 10 to 100 nM. For `CC(C)n1cnnc1-c1cccc(NC(=O)c2cc3sc(NCC4CC4)nc3cc2F)n1` [Example 48] the value was 10 to 100 nM. Compound `CC(C)n1cnnc1-c1cccc(NC(=O)c2cc3sc(N4CCN(C(C)(C)C)CC4)nc3cn2)n1` [Example 74] yielded an IC50 of 10 to 100 nM. The figure for `CCN(CC)c1nc2cc(F)c(C(=O)Nc3cccc(-c4nnnn4C(C)C)n3)cc2s1` [Example 35] is above 1000 nM; for `CC(C)n1cnnc1-c1cccc(NC(=O)c2ccc3ncn(C)c3c2)n1` [Example 1, N-(6-(4-isopropyl-4H-1,2,4-triazol-3-yl)pyridin-2-yl)-1-methyl-1H-benzo[d]imidazole-6-carboxamide] it is 100 to 1000 nM. The figure for `CC(C)n1cnnc1-c1cccc(NC(=O)c2ccc3nc(N4CCOCC4)sc3c2)n1` [Example 61] is 10 to 100 nM. The figure for `CC(C)n1cnnc1-c1cccc(NC(=O)c2cc3sc(N4CCCCC4)nc3cc2F)n1` [Example 30, 5-fluoro-N-(6-(4-isopropyl-4H-1,2,4-triazol-3-yl)pyridin-2-yl)-2-(piperidin-1-yl)benzo[d]thiazole-6-carboxamide] is 1 to 10 nM; for `CC(C)Nc1nc2ccc(C(=O)Nc3cccc(-c4nncn4C(C)C)n3)cc2s1` [Example 56] it is 100 to 1000 nM; for `CC(C)n1cnnc1-c1cccc(NC(=O)c2ccc3nc(N4C5CCCC4CC5)sc3c2)n1` [Example 51] it is 10 to 100 nM. `CC(C)n1cnnc1-c1cccc(NC(=O)c2cc3sc(N4CCCCC4)nc3cn2)n1` [Example 66, N-(6-(4-isopropyl-4H-1,2,4-triazol-3-yl)pyridin-2-yl)-2-(piperidin-1-yl)thiazolo[4,5-c]pyridine-6-carboxamide]: the IC50 fell in the range of 1 to 10 nM. The figure for `CC(C)n1nnnc1-c1cccc(NC(=O)c2cc3sc(N4CCN(C(C)(C)C)CC4)nc3cn2)n1` [Example 71] is 100 to 1000 nM; for `CC(C)n1cnnc1-c1cccc(NC(=O)c2cc3sc(N(C)C4CCCCC4)nc3cc2F)n1` [Example 8] it is 1 to 10 nM; for `CC(C)n1cnnc1-c1cccc(NC(=O)c2ccc3nc(N4CCN(C(C)(C)C)CC4)sc3c2)n1` [Example 59] it is 10 to 100 nM. As to `CC(C)n1cnnc1-c1cccc(NC(=O)c2ccc3nc(N4CCC(C)(C)CC4)sc3c2)n1` [Example 54], the IC50 is above 1000 nM. The figure for `CC(C)n1cnnc1-c1cccc(NC(=O)c2cc3sc(C4CCC4)nc3cc2F)n1` [Example 37] is 10 to 100 nM; for `CC(C)n1cnnc1-c1cccc(NC(=O)c2ccc3ncsc3c2)n1` [Example 2, N-(6-(4-isopropyl-4H-1,2,4-triazol-3-yl)pyridin-2-yl)benzo[d]thiazole-6-carboxamide] it is 100 to 1000 nM; for `CNc1nc2cc(F)c(C(=O)Nc3cccc(-c4nncn4C(C)C)n3)cc2s1` [Example 49, 5-fluoro-N-(6-(4-isopropyl-4H-1,2,4-triazol-3-yl)pyridin-2-yl)-2-(methylamino)benzo[d]thiazole-6-carboxamide] it is 1 to 10 nM.

`CCCCN(C)c1nc2cc(F)c(C(=O)Nc3cccc(-c4nnnn4C(C)C)n3)cc2s1` [Example 43] had an IC50 above 1000 nM.
